The source made the active and inactive calls. The rule behind the calls is not given here.
What was measured:
[1] = Induction of singlet oxygen production at 1 uM after irradiation at 10 mW/cm'2 in presence of 1,3-diphenylisobenzofuran; format: physicochemical
HaCaT [2] = test: Phototoxicity against human HaCaT cells assessed as surviving fraction at 0.22 uM under LED array light by MTT assay; format: functional
HaCaT [3] = test: Phototoxicity against human HaCaT cells assessed as surviving fraction at 0.61 uM under LED array light by MTT assay; format: functional
HaCaT [4] = test: Phototoxicity against human HaCaT cells assessed as surviving fraction at 1.2 uM under LED array light; format: functional
HaCaT [5] = test: Phototoxicity against human HaCaT cells assessed as surviving fraction at 2.4 uM under LED array light; format: functional
HeLa [6] = test: Phototoxicity against human HeLa cells assessed as surviving fraction at 0.22 uM under LED array light; format: functional
HeLa [7] = test: Phototoxicity against human HeLa cells assessed as surviving fraction at 0.61 uM under LED array light; format: functional
HeLa [8] = test: Phototoxicity against human HeLa cells assessed as surviving fraction at 1.2 uM under LED array light; format: functional
HeLa [9] = test: Phototoxicity against human HeLa cells assessed as surviving fraction at 2.4 uM under LED array light; format: functional
HaCaT [10] = test: Phototoxicity against human HaCaT cells assessed as surviving fraction at 12 uM under LED array light; format: functional
HeLa [11] = test: Phototoxicity against human HeLa cells assessed as surviving fraction at 12 uM under LED array light by MTT assay; format: functional
HaCaT [12] = test: Phototoxicity against human HaCaT cells assessed as surviving fraction at 1.2 uM irradiated with 9.15 mW/cm'2 light for 10 mins by MTT assay; format: functional
HaCaT [13] = test: Phototoxicity against human HaCaT cells assessed as surviving fraction at 1.2 uM irradiated with 9.15 mW/cm'2 light for 20 mins by MTT assay; format: functional
HeLa [14] = test: Phototoxicity against human HeLa cells assessed as surviving fraction at 1.2 uM irradiated with 9.15 mW/cm'2 light for 5 mins by MTT assay; format: functional
HeLa [15] = test: Phototoxicity against human HeLa cells assessed as surviving fraction at 1.2 uM irradiated with 9.15 mW/cm'2 light for 10 mins by MTT assay; format: functional
HeLa [16] = test: Phototoxicity against human HeLa cells assessed as surviving fraction at 1.2 uM irradiated with 9.15 mW/cm'2 light for 20 mins by MTT assay; format: functional
HaCaT [17] = test: Induction of apoptosis in human HaCaT cells assessed as change in cellular morphology after irradiation with 9.15 mW/cm'2 light; format: functional, cell-based
HaCaT [18] = test: Induction of apoptosis in human HaCaT cells assessed as intracellular localization at 1.2 uM with 9.15 mW/cm'2 light for; format: functional, cell-based; conditions: TDE = time-dependent effect
HeLa [19] = test: Induction of apoptosis in human HeLa cells assessed as intracellular localization at 0.25 uM with 9.15 mW/cm'2 light for; format: functional, cell-based; conditions: TDE = time-dependent effect
HeLa [20] = test: Phototoxicity against human HeLa cells assessed as survival at 1.2 uM irradiated with 9.15 mW/cm'2 light for 10 mins by MTT assay
[21] = Photostability of the compound irradiated with 9.15 mW/cm'2 white light; format: physicochemical
HaCaT [22] = test: Phototoxicity against human HaCaT cells assessed as surviving fraction at 0.25 uM irradiated with 9.15 mW/cm'2 light for 10 mins by MTT assay; format: functional
HaCaT [23] = test: Phototoxicity against human HaCaT cells assessed as surviving fraction at 0.25 uM irradiated with 9.15 mW/cm'2 light for 5 mins by MTT assay; format: functional
HaCaT [24] = test: Phototoxicity against human HaCaT cells assessed as surviving fraction at 0.25 uM irradiated with 9.15 mW/cm'2 light for 20 mins by MTT assay; format: functional
HeLa [25] = test: Phototoxicity against human HeLa cells assessed as surviving fraction at 0.25 uM irradiated with 9.15 mW/cm'2 light for 5 mins by MTT assay; format: functional
HeLa [26] = test: Phototoxicity against human HeLa cells assessed as surviving fraction at 0.25 uM irradiated with 9.15 mW/cm'2 light for 10 mins by MTT assay; format: functional
HeLa [27] = test: Phototoxicity against human HeLa cells assessed as surviving fraction at 0.25 uM irradiated with 9.15 mW/cm'2 light for 20 mins by MTT assay; format: functional
HaCaT [28] = test: Induction of apoptosis in human HaCaT cells assessed as intracellular localization at 0.25 uM with 9.15 mW/cm'2 light for; format: functional, cell-based; conditions: TDE = time-dependent effect
HeLa [29] = test: Phototoxicity against human HeLa cells assessed as survival at 0.25 uM irradiated with 9.15 mW/cm'2 light for 10 mins by MTT assay
HaCaT [30] = test: Phototoxicity against human HaCaT cells assessed as surviving fraction at 0.3 uM irradiated with 9.15 mW/cm'2 light for 5 mins by MTT assay; format: functional
HaCaT [31] = test: Phototoxicity against human HaCaT cells assessed as surviving fraction at 0.3 uM irradiated with 9.15 mW/cm'2 light for 10 mins by MTT assay; format: functional
HaCaT [32] = test: Phototoxicity against human HaCaT cells assessed as surviving fraction at 0.3 uM irradiated with 9.15 mW/cm'2 light for 15 mins by MTT assay; format: functional
HeLa [33] = test: Phototoxicity against human HeLa cells assessed as surviving fraction at 0.3 uM irradiated with 9.15 mW/cm'2 light for 5 mins by MTT assay; format: functional
HeLa [34] = test: Phototoxicity against human HeLa cells assessed as surviving fraction at 0.3 uM irradiated with 9.15 mW/cm'2 light for 10 mins by MTT assay; format: functional
HeLa [35] = test: Phototoxicity against human HeLa cells assessed as surviving fraction at 0.3 uM irradiated with 9.15 mW/cm'2 light for 15 mins by MTT assay; format: functional
HaCaT [36] = test: Induction of apoptosis in human HaCaT cells assessed as change in cytoplasmic vacuolization after irradiation with 9.15 mW/cm'2 light for 10 mins; format: functional, cell-based
HaCaT [37] = test: Induction of apoptosis in human HaCaT cells assessed as change in loss of basophilia after irradiation with 9.15 mW/cm'2 light for 10 mins; format: functional, cell-based
HaCaT [38] = test: Induction of apoptosis in human HaCaT cells assessed as change in loss of adheshin after irradiation with 9.15 mW/cm'2 light for 10 mins; format: functional, cell-based
HaCaT [39] = test: Induction of apoptosis in human HaCaT cells assessed as intracellular localization at 0.3 uM with 9.15 mW/cm'2 light for; format: functional, cell-based; conditions: TDE = time-dependent effect
HeLa [40] = test: Phototoxicity against human HeLa cells assessed as survival at 0.3 uM irradiated with 9.15 mW/cm'2 light for 10 mins by MTT assay

Structure (SMILES)	Activity (HaCaT [2])	Activity (HaCaT [3])	Activity (HaCaT [4])	Activity (HaCaT [5])	Activity (HeLa [6])	Activity (HeLa [7])	Activity (HeLa [8])	Activity (HeLa [9])	Activity (HaCaT [10])	Activity (HeLa [11])	Activity (HaCaT [17])	Activity (HeLa [19])	other results
COC(=O)C(CO)NC(=O)c1ccc(-c2c3nc(c(-c4cccc(OC)c4)c4ccc([nH]4)c(-c4cccc(OC)c4)c4nc(c(-c5cccc(OC)c5)c5ccc2[nH]5)C=C4)C=C3)cc1 (configuration not stated)	101.49%	104.72%	102.65%	97.54%	102.58%	100.28%	102.78%	91.48%	96.98%	67.33%	Active	tde	Activity [1]: Active; Activity (HaCaT [12]): 42.75%; Activity (HaCaT [13]): 22.54%; Activity (HeLa [14]): 8%; Activity (HeLa [15]): 0%; Activity (HeLa [16]): 0%; Activity (HaCaT [18]): tde; Survival (HeLa [20]): 42.75%
COC(=O)CNC(=O)c1ccc(-c2c3nc(c(-c4cccc(OC)c4)c4ccc([nH]4)c(-c4cccc(OC)c4)c4nc(c(-c5cccc(OC)c5)c5ccc2[nH]5)C=C4)C=C3)cc1	94.98%	97.96%	102.19%	109.91%	107.31%	110.38%	106.97%	104.89%	24.3%	60.42%	Active		Stability [21]: Stable; Activity (HaCaT [22]): 50.96%; Activity (HaCaT [23]): 82.69%; Activity (HaCaT [24]): 22.11%; Activity (HeLa [25]): 3.74%; Activity (HeLa [26]): 1.13%; Activity (HeLa [27]): 1.32%; Activity (HaCaT [28]): tde; Survival (HeLa [29]): 50.96%
COC(=O)C(CC[S+](C)[O-])NC(=O)c1ccc(-c2c3nc(c(-c4cccc(OC)c4)c4ccc([nH]4)c(-c4cccc(OC)c4)c4nc(c(-c5cccc(OC)c5)c5ccc2[nH]5)C=C4)C=C3)cc1 (configuration not stated)	99.2%	101.5%	103.4%	101.3%	93.26%	92.61%	95.69%	93.5%	16.9%	16.93%		tde	Activity (HaCaT [30]): 76.87%; Activity (HaCaT [31]): 53.02%; Activity (HaCaT [32]): 28.2%; Activity (HeLa [33]): 56.87%; Activity (HeLa [34]): 14.23%; Activity (HeLa [35]): 10.93%; Activity (HaCaT [36]): Active; Activity (HaCaT [37]): Active; Activity (HaCaT [38]): Active; Activity (HaCaT [39]): tde; Survival (HeLa [40]): 53.02%

— ChEMBL document CHEMBL1212865, “New porphyrin amino acid conjugates: synthesis and photodynamic effect in human epithelial cells” (Bioorg Med Chem, 2010)
